Results taken from ChEMBL document CHEMBL1201862, “PubChem BioAssay data set” (2004).
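Cells were grown in 96-well plates and exposed to each compound for 48 hours at five concentrations; endpoints were interpolated linearly between bracketing concentrations, or set to the highest concentration if not reached. At the GI50, growth is halved.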 The source made the active and inactive calls. Rule as the data show it: active = GI50 up to about 1.1 µM and inactive = higher. Where a SMILES comes first, the peptide text is derived from it. The star is where a group is joined. Cbz = O=C(OCc1ccccc1)*; Boc = CC(C)(C)OC(=O)*; Bn = c1ccc(C*)cc1

Legend:
Experiment in all cases: NCI-60 cell line screen, 48 h
A498 = test system: A498
HOP-92 = test system: HOP-92
U-251 = test system: U-251
DU-145 = test system: DU-145
SK-MEL-28 = test system: SK-MEL-28
NCI-H460 = test system: NCI-H460
NCI-H23 = test system: NCI-H23
BT-549 = test system: BT-549
HCC 2998 = test system: HCC 2998
KM12 = test system: KM12
HCT-15 = test system: HCT-15
EKVX = test system: EKVX
SN12C = test system: SN12C
OVCAR-5 = test system: OVCAR-5
M14 = test system: M14
UO-31 = test system: UO-31
IGROV-1 = test system: IGROV-1
Malme-3M = test system: Malme-3M
NCI-H522 = test system: NCI-H522
Hs-578T = test system: Hs-578T

## COc1ccc2nc3n(c2c1)C(c1c(Cl)cccc1Cl)SC3 (stereo not drawn)
A498
  GI50: > 100 µM (inactive)
HOP-92
  GI50: > 100 µM (inactive)
U-251
  GI50: > 100 µM (inactive)
DU-145
  GI50: > 100 µM (inactive)
SK-MEL-28
  GI50: > 100 µM (inactive)
NCI-H460
  GI50: > 100 µM (inactive)
NCI-H23
  GI50: > 100 µM (inactive)
BT-549
  GI50: > 100 µM (inactive)
HCC 2998
  GI50: > 100 µM (inactive)
KM12
  GI50: > 100 µM (inactive)
HCT-15
  GI50: > 100 µM
EKVX
  GI50: > 100 µM (inactive)
SN12C
  GI50: > 100 µM (inactive)
OVCAR-5
  GI50: > 100 µM (inactive)
M14
  GI50: > 100 µM (inactive)
UO-31
  GI50: > 100 µM (inactive)
IGROV-1
  GI50: > 100 µM (inactive)

## CN(C)c1ccc(-c2c(C#N)c(-c3ccccc3)n(NS(=O)(=O)c3ccccc3)c(=O)c2C#N)cc1
A498
  GI50: 57 µM (inactive)
Malme-3M
  GI50: 40.1 µM (inactive)
HOP-92
  GI50: 28.9 µM (inactive)
U-251
  GI50: 50.7 µM (inactive)
SK-MEL-28
  GI50: 70.8 µM (inactive)
NCI-H460
  GI50: 54.3 µM (inactive)
NCI-H522
  GI50: 58.3 µM (inactive)
BT-549
  GI50: 56.9 µM (inactive)
HCC 2998
  GI50: 30.1 µM (inactive)
KM12
  GI50: 65.6 µM (inactive)
HCT-15
  GI50: 77.3 µM
EKVX
  GI50: 67.5 µM (inactive)
SN12C
  GI50: 68.9 µM (inactive)
OVCAR-5
  GI50: > 100 µM (inactive)
Hs-578T
  GI50: 23.1 µM (inactive)
M14
  GI50: 47.4 µM (inactive)
IGROV-1
  GI50: 40.8 µM (inactive)

## CC1(C(O)c2ccccc2)CN(C(C)(C)C)C(=O)/C1=C\Sc1ccccc1 (stereo not drawn)
A498
  GI50: > 100 µM (inactive)
HOP-92
  GI50: 1.88 µM (inactive)
U-251
  GI50: 22.6 µM (inactive)
DU-145
  GI50: > 100 µM (inactive)
SK-MEL-28
  GI50: > 100 µM (inactive)
NCI-H23
  GI50: > 100 µM (inactive)
NCI-H522
  GI50: 2.48 µM (inactive)
BT-549
  GI50: 59.6 µM (inactive)
HCC 2998
  GI50: 94.2 µM (inactive)
KM12
  GI50: 31.8 µM (inactive)
HCT-15
  GI50: 29.2 µM
EKVX
  GI50: 83 µM (inactive)
SN12C
  GI50: 33.9 µM (inactive)
OVCAR-5
  GI50: > 100 µM (inactive)
M14
  GI50: 51.3 µM (inactive)
UO-31
  GI50: 29.7 µM (inactive)
IGROV-1
  GI50: 33.3 µM (inactive)

## CCC(NC(C)c1ccccc1)C(O)c1ccc(OCc2ccccc2)c(OCc2ccccc2)c1 (stereo not drawn)
A498
  GI50: 24 µM (inactive)
Malme-3M
  GI50: 14.6 µM (inactive)
HOP-92
  GI50: 5.74 µM (inactive)
U-251
  GI50: 13 µM (inactive)
DU-145
  GI50: 18.2 µM (inactive)
SK-MEL-28
  GI50: 19.9 µM (inactive)
NCI-H460
  GI50: 15.1 µM (inactive)
NCI-H23
  GI50: 16.4 µM (inactive)
NCI-H522
  GI50: 15.7 µM (inactive)
HCC 2998
  GI50: 2.37 µM (inactive)
KM12
  GI50: 5.81 µM (inactive)
HCT-15
  GI50: 14.5 µM
EKVX
  GI50: 16.5 µM (inactive)
SN12C
  GI50: 15.1 µM (inactive)
OVCAR-5
  GI50: 13.1 µM (inactive)
Hs-578T
  GI50: 19 µM (inactive)
M14
  GI50: 4.86 µM (inactive)
UO-31
  GI50: 11 µM (inactive)
IGROV-1
  GI50: 18.6 µM (inactive)

## N=C(Nc1nc(-c2ccccn2)cc2ccccc12)c1ccccn1
A498
  GI50: 0.233 µM (active)
Malme-3M
  GI50: 0.157 µM (active)
HOP-92
  GI50: 0.0233 µM (active)
U-251
  GI50: 0.0295 µM (active)
DU-145
  GI50: 0.0673 µM (active)
SK-MEL-28
  GI50: 0.252 µM (active)
NCI-H460
  GI50: 0.0857 µM (active)
NCI-H23
  GI50: 0.0156 µM (active)
NCI-H522
  GI50: 0.0398 µM (active)
HCC 2998
  GI50: 0.117 µM (active)
KM12
  GI50: 0.049 µM (active)
HCT-15
  GI50: 0.0149 µM
EKVX
  GI50: 0.0221 µM (active)
SN12C
  GI50: 0.0252 µM (active)
OVCAR-5
  GI50: 0.0148 µM (active)
Hs-578T
  GI50: 1.61 µM (inactive)
M14
  GI50: 0.0229 µM (active)
UO-31
  GI50: 0.0918 µM (active)
IGROV-1
  GI50: 0.0322 µM (active)

## C=CCNC(NCC=C)=C(C(Cl)=C(Cl)Cl)[N+](=O)[O-]
A498
  GI50: > 100 µM (inactive)
Malme-3M
  GI50: 16.4 µM (inactive)
U-251
  GI50: > 100 µM (inactive)
DU-145
  GI50: 78.3 µM (inactive)
SK-MEL-28
  GI50: 79.3 µM (inactive)
NCI-H460
  GI50: > 100 µM (inactive)
NCI-H23
  GI50: 34.1 µM (inactive)
BT-549
  GI50: 26 µM (inactive)
HCC 2998
  GI50: > 100 µM (inactive)
KM12
  GI50: 65.5 µM (inactive)
HCT-15
  GI50: 16.8 µM
EKVX
  GI50: 67.3 µM (inactive)
SN12C
  GI50: 59.2 µM (inactive)
OVCAR-5
  GI50: > 100 µM (inactive)
Hs-578T
  GI50: 25.4 µM (inactive)
M14
  GI50: 31.9 µM (inactive)
UO-31
  GI50: 37.5 µM (inactive)

## N[C@H](Cc1ccc2oc3cc(=O)c4ccccc4c-3nc2c1)C(=O)O
A498
  GI50: 49.7 µM (inactive)
Malme-3M
  GI50: 21 µM (inactive)
HOP-92
  GI50: > 100 µM (inactive)
U-251
  GI50: 98.4 µM (inactive)
DU-145
  GI50: 21.7 µM (inactive)
SK-MEL-28
  GI50: > 100 µM (inactive)
NCI-H460
  GI50: 25.9 µM (inactive)
NCI-H23
  GI50: 23.7 µM (inactive)
NCI-H522
  GI50: 44.7 µM (inactive)
KM12
  GI50: 37.3 µM (inactive)
HCT-15
  GI50: 39.4 µM
EKVX
  GI50: > 100 µM (inactive)
SN12C
  GI50: 42.5 µM (inactive)
OVCAR-5
  GI50: 65.9 µM (inactive)
Hs-578T
  GI50: 39.6 µM (inactive)
M14
  GI50: 19.3 µM (inactive)
UO-31
  GI50: > 100 µM (inactive)
IGROV-1
  GI50: 32.3 µM (inactive)

## CCOC(=O)C1(Cc2ccccc2)Cc2ccccc2C1=O (stereo not drawn)
Malme-3M
  GI50: 18.7 µM (inactive)
HOP-92
  GI50: 16.5 µM (inactive)
U-251
  GI50: 34.6 µM (inactive)
DU-145
  GI50: 45.2 µM (inactive)
SK-MEL-28
  GI50: 24.8 µM (inactive)
NCI-H460
  GI50: 27.2 µM (inactive)
NCI-H23
  GI50: 17.3 µM (inactive)
HCC 2998
  GI50: 34.4 µM (inactive)
KM12
  GI50: 26.6 µM (inactive)
HCT-15
  GI50: 30.9 µM
EKVX
  GI50: 20.7 µM (inactive)
SN12C
  GI50: 27.7 µM (inactive)
OVCAR-5
  GI50: 30.4 µM (inactive)
Hs-578T
  GI50: 35.1 µM (inactive)
M14
  GI50: 16.6 µM (inactive)
UO-31
  GI50: 14.6 µM (inactive)
IGROV-1
  GI50: 35.2 µM (inactive)

## NS(=O)(=O)c1ccc(CNc2nc(-c3cccs3)nc3ccc(I)cc23)cc1
Malme-3M
  GI50: 14.7 µM (inactive)
HOP-92
  GI50: 16 µM (inactive)
U-251
  GI50: 18.1 µM (inactive)
DU-145
  GI50: 14.9 µM (inactive)
SK-MEL-28
  GI50: 21.3 µM (inactive)
NCI-H460
  GI50: 15 µM (inactive)
NCI-H23
  GI50: 17.9 µM (inactive)
NCI-H522
  GI50: 14.7 µM (inactive)
BT-549
  GI50: 12.7 µM (inactive)
HCC 2998
  GI50: 13.8 µM (inactive)
KM12
  GI50: 8.57 µM (inactive)
HCT-15
  GI50: 13.1 µM
EKVX
  GI50: 3.85 µM (inactive)
SN12C
  GI50: 22.9 µM (inactive)
OVCAR-5
  GI50: 19.2 µM (inactive)
M14
  GI50: 15.1 µM (inactive)
UO-31
  GI50: 2.11 µM (inactive)
IGROV-1
  GI50: 12.2 µM (inactive)

## COc1cc(-c2oc3c(OC)c(O)c(OC)c(O)c3c(=O)c2OC)cc(O)c1OC
A498
  GI50: 22.5 µM (inactive)
Malme-3M
  GI50: 23.9 µM (inactive)
HOP-92
  GI50: 39.4 µM (inactive)
U-251
  GI50: 43.4 µM (inactive)
DU-145
  GI50: 37.1 µM (inactive)
SK-MEL-28
  GI50: 47.5 µM (inactive)
NCI-H23
  GI50: 22.6 µM (inactive)
NCI-H522
  GI50: 24.3 µM (inactive)
HCC 2998
  GI50: 31.3 µM (inactive)
KM12
  GI50: 14.3 µM (inactive)
HCT-15
  GI50: 35.3 µM
EKVX
  GI50: 39.2 µM (inactive)
SN12C
  GI50: 34.4 µM (inactive)
OVCAR-5
  GI50: 56.6 µM (inactive)
M14
  GI50: 38.3 µM (inactive)
UO-31
  GI50: 23.5 µM (inactive)
IGROV-1
  GI50: 12.1 µM (inactive)

## CC(C)(C)OC(=O)NC(Cc1ccc(OCc2ccccc2)cc1)C(=O)NC(CCCCNC(=O)OCc1ccccc1)C(=O)O (stereo not drawn) (Boc-Tyr(Bn)-Lys(Cbz)-OH; configuration not given here)
Malme-3M
  GI50: 94.2 µM (inactive)
HOP-92
  GI50: 16.4 µM (inactive)
U-251
  GI50: 33.8 µM (inactive)
SK-MEL-28
  GI50: 17.4 µM (inactive)
NCI-H23
  GI50: 29.2 µM (inactive)
BT-549
  GI50: 17.3 µM (inactive)
HCC 2998
  GI50: 35.3 µM (inactive)
KM12
  GI50: 28.2 µM (inactive)
HCT-15
  GI50: > 10 µM
EKVX
  GI50: > 100 µM (inactive)
SN12C
  GI50: 30.5 µM (inactive)
OVCAR-5
  GI50: > 100 µM (inactive)
Hs-578T
  GI50: 69.3 µM (inactive)
M14
  GI50: 2.72 µM (inactive)
UO-31
  GI50: 73.8 µM (inactive)
IGROV-1
  GI50: 34 µM (inactive)

## Cc1cn(C2C=CC(COP(=O)(OCc3ccc([N+](=O)[O-])o3)N(C)CCCCCl)O2)c(=O)[nH]c1=O (stereo not drawn)
Malme-3M
  GI50: 1.79 µM (inactive)
HOP-92
  GI50: 1.95 µM (inactive)
U-251
  GI50: 5.58 µM (inactive)
DU-145
  GI50: 13.3 µM (inactive)
SK-MEL-28
  GI50: 10.6 µM (inactive)
NCI-H460
  GI50: 10 µM (inactive)
NCI-H23
  GI50: 3.05 µM (inactive)
NCI-H522
  GI50: 1.85 µM (inactive)
KM12
  GI50: 6.68 µM (inactive)
HCT-15
  GI50: 16.6 µM
SN12C
  GI50: 10.8 µM (inactive)
OVCAR-5
  GI50: 15.6 µM (inactive)
Hs-578T
  GI50: 2.17 µM (inactive)
M14
  GI50: 4.69 µM (inactive)
UO-31
  GI50: 16.7 µM (inactive)
IGROV-1
  GI50: 3.03 µM (inactive)
